Series [1] deals with Cholinesterase (Homo sapiens, UniProt P06276). As to the kind of experiment: Inhibition of human recombinant BuChE using butyrylthiocholine iodide as substrate after 20 mins preincubation by Ellman method. On the technique in general: DTNB colorimetry detects thiols as they appear.
Series [2] concerns the target T1, Beta-secretase 1 (Homo sapiens, UniProt P56817). As to the kind of experiment: Inhibition of recombinant BACE1 expressed in baculovirus system using panvera peptide as substrate at 3 uM after 60 mins by spectrofluorometric analysis.
Series [3] can be described thus: Inhibition of amyloid beta (1 to 42) self-aggregation assessed as fibril formation at 10 uM after 24 hrs by thioflavin T-based fluorometric assay.
Series [4] has as its target T1, Beta-secretase 1. Briefly: Inhibition of recombinant BACE1 expressed in baculovirus system using M-2420 as substrate preincubated for 1 hr before substrate addition measured after 15 mins by spectrofluorometric analysis.
Series [5] can be described thus: Neurotoxicity in chicken primary telencephalon neuron expressing APP assessed as reduction in neuronal viability at 25 uM after 24 hrs by MTT assay. The arrangement: species or system Gallus gallus.
In series [6] the target is T2, Acetylcholinesterase (Homo sapiens, UniProt P22303). As to the kind of experiment: Inhibition of human recombinant AChE using acetylthiocholine iodide as substrate after 20 mins preincubation by Ellman method.
Series [7] has as its target T2, Acetylcholinesterase. Briefly: Inhibition of human recombinant AChE-induced amyloid beta 40 aggregation assessed as fibril formation at 100 uM after 24 hrs by thioflavin T-based fluorometric assay.
Series [8] in a line: Neurotoxicity in chicken primary telencephalon neuron expressing APP assessed as reduction in neuronal viability at 50 uM after 24 hrs by MTT assay. More on the design: species or system Gallus gallus.
For series [9], the target named is T1, Beta-secretase 1. Briefly: Inhibition of recombinant BACE1 expressed in baculovirus system using panvera peptide as substrate after 60 mins by spectrofluorometric analysis.
For series [10], the target named is T2, Acetylcholinesterase. As to the kind of experiment: Inhibition of human recombinant AChE-induced amyloid beta (1-40) aggregation assessed as fibril formation after 24 hrs by thioflavin T-based fluorometric assay.
Series [11] in a line: Neurotoxicity in chicken primary telencephalon neuron expressing APP assessed as reduction in neuronal viability at 0.01 to 50 uM after 24 hrs by MTT assay. The arrangement: species or system Gallus gallus. On the technique in general: Formazan colour is commonly taken as a measure of viable cells.
A short description of series [12]: Inhibition of gamma-secretase in chicken primary telencephalon neuron cells expressing APP assessed as inhibition of amyloid beta-38 production by electrochemiluminescence assay. The note with it: Gallus gallus.
Series [13] is described as follows: Inhibition of gamma-secretase in chicken primary telencephalon neuron cells expressing APP assessed as inhibition of amyloid beta-40 production by electrochemiluminescence assay. To be noted: Gallus gallus.
Series [14] is described as follows: Inhibition of gamma-secretase in chicken primary telencephalon neuron cells expressing APP assessed as inhibition of amyloid beta-42 production by electrochemiluminescence assay. The note with it: Gallus gallus.

Active and inactive are the calls of the source. No cut-off for these calls is given here.

In general, IC50 refers to the midpoint of a concentration-inhibition curve. Broadly, the inhibition is the percentage by which the read-out fell short of the control.

Cholinesterase, sequence (P06276 whole entry): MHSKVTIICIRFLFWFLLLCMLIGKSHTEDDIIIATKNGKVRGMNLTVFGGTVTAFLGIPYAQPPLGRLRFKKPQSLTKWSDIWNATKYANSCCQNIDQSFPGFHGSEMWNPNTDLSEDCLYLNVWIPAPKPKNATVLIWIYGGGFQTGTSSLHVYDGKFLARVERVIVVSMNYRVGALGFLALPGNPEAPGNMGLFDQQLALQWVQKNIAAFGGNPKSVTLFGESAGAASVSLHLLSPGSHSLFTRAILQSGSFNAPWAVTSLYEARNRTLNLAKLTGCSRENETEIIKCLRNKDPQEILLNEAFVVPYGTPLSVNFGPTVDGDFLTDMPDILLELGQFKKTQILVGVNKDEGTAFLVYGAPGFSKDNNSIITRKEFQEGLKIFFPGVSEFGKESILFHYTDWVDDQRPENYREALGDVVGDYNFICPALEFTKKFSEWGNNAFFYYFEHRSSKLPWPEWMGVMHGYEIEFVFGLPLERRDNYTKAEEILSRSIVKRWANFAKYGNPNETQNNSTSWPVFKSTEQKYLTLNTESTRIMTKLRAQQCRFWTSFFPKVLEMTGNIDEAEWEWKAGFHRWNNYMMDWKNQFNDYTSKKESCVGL
T1 sequence (P56817 whole entry): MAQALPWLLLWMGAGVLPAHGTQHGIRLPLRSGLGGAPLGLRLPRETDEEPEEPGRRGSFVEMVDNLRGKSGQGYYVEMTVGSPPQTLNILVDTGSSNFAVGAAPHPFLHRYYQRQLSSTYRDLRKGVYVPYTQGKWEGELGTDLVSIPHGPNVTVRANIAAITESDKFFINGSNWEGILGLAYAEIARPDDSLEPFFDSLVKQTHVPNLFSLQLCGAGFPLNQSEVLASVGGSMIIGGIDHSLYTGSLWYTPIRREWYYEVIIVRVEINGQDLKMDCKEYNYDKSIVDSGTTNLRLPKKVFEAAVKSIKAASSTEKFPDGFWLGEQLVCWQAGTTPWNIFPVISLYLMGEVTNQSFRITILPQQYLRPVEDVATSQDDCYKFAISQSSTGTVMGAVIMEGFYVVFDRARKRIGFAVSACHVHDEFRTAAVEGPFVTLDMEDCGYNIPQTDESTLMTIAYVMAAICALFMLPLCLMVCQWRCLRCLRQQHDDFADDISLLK
T2 sequence (P22303 whole entry): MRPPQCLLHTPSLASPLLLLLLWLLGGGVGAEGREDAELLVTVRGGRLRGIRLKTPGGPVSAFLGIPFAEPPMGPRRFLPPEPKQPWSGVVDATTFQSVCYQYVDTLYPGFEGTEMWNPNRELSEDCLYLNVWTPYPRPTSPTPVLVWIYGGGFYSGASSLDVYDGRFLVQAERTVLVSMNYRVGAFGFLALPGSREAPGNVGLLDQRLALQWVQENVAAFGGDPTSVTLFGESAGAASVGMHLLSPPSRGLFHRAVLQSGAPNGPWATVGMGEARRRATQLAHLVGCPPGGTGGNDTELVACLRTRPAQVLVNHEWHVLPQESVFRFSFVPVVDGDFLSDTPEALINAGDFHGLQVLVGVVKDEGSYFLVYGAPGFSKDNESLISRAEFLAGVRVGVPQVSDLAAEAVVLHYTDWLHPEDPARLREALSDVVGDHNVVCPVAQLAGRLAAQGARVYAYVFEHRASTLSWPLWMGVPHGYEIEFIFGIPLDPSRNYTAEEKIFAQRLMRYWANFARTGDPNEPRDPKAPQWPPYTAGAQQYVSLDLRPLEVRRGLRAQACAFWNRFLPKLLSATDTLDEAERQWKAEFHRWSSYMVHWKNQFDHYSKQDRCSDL

As for `CCN(CCCCCCNC1=CC(=O)C(NCCCCCCN(CC)Cc2ccccc2OC)=CC1=O)Cc1ccccc1OC` [MEMOQUIN], the results for the IC50 in series [1] and in [4] were 0.144 µM and 4.6 µM, respectively. Also, the figures for the inhibition in series [2] and in [3] were more than 80% and 66.8%, respectively. The Activity result in series [5] is given as “Toxic”.

For the compound `CCN(CCCCCCNC1=CC(=O)c2ncccc2C1=O)Cc1ccccc1OC`, the IC50 amounted to 0.0279 µM in series [6] and 2.56 µM in series [1]. Further, the inhibition entry in [2] is “inactive”. The inhibition was determined as 41.3% in series [7] and 15.4% in [3].

For the compound `CCN(CCCCCCNC1=CC(=O)C(OC)=CC1=O)Cc1ccccc1OC`, the IC50 turned out to be 0.0653 µM in [6] and 22.8 µM in series [1]. Moreover, the inhibition in [2] was determined as 32.8%; in series [3], 45.7%. Also, the Activity result in [8] is reported as “Toxic”.

As for `COc1ccccc1CN1CCC(N2CCC(NC3=CC(=O)c4ccccc4C3=O)CC2)CC1`, the IC50 was determined as 17.2 µM in series [6] and 3.16 µM in [1]. In series [2], the inhibition result was “inactive”. The inhibition in [3] came out at 21.4%.

Take `NCCCCCCNC1=CC(=O)c2ccccc2C1=O`: the results for the IC50 in [6] and in series [1] were 64.5 µM and 294 µM, respectively. Moreover, the inhibition result in series [2] was “inactive”. For the same compound, the inhibition in series [3] worked out at 13.8%.

As for `CCN(CCCCCCNC1=CC(=O)c2ccccc2C1=O)Cc1ccccc1OC`, the IC50 in [6] is 0.00973 µM; in series [1], 1.49 µM; in series [9], 2.8 µM; in [10], 45 µM; in series [4], 3 µM; in series [12] it was 19 µM. Further, the results for the IC50 in series [13] and in series [14] were 21 µM and 46 µM, respectively. Also, the inhibition was determined as 60.2% in series [2], 69.1% in series [7] and 27.3% in [3]. For the same compound, the Activity entry in series [11] was “Non-toxic”.

On to `COC1=CC(=O)C(N2CCC(C3CCN(Cc4ccccc4OC)CC3)CC2)=CC1=O`, for which the IC50 in series [6] turned out to be 24.4 µM; in series [1] it was 3.58 µM. In addition, the inhibition in series [2] amounted to 32.9%; in [3], 20.5%. Further, the Activity result in [5] is reported as “Toxic”.

As for `COc1ccccc1CNCCCCCCNC1=CC(=O)c2ccccc2C1=O`, the concentration for half-maximal inhibition (IC50) in [6] stood at 1.85 µM; in [1] it was 3.32 µM. In addition, the inhibition result in series [2] is “inactive”. Also, in [3], the inhibition stood at 29.5%.

Consider `CCN(CCCCCCNC1=CC(=O)C(C)=C(C)C1=O)Cc1ccccc1OC`, for which the IC50 was 0.029 µM in series [6] and 0.314 µM in series [1]. The results for the inhibition in series [2], in series [7] and in [3] were 12.8%, 60.6% and 30.2%, respectively.

Source of the values: ChEMBL document CHEMBL1938257, “Synthesis of monomeric derivatives to probe memoquin's bivalent interactions” (J Med Chem, 2011).
